This is an account of results in ChEMBL document CHEMBL2069212, “Identification and in vivo and in vitro characterization of long acting and melanocortin 4 receptor (MC4-R) selective α-melanocyte-stimulating hormone (α-MSH) analogues” (J Med Chem, 2012).

Assay [1] deals with Melanocyte-stimulating hormone receptor (Homo sapiens, UniProt Q01726). As to the kind of experiment: Displacement of [125I]-NAD-alpha-MSH from human recombinant MC1 receptor expressed in BHK570 cells after 90 mins in presence of ovalbumin. The assay is classed as cell-based. In general terms: In a radioligand displacement assay an active substance lowers the binding of a labelled ligand.
Sequence of Melanocyte-stimulating hormone receptor (Q01726 whole entry): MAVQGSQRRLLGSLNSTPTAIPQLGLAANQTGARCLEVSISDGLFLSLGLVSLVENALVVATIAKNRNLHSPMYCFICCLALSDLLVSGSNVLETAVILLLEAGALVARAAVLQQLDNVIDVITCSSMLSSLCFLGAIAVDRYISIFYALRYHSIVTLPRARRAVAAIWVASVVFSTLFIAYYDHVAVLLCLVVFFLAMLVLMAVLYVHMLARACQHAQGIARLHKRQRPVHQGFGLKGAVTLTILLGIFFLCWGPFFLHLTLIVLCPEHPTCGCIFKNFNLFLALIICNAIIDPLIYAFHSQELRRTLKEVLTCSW

In another assay the target is Melanocortin receptor 3 (Homo sapiens, UniProt P41968). As to the kind of experiment: Displacement of [125I]-NAD-alpha-MSH from human recombinant MC3 receptor expressed in BHK570 cells after 1 hr in presence of ovalbumin. It counts as cell-based.
Sequence of Melanocortin receptor 3 (P41968 whole entry): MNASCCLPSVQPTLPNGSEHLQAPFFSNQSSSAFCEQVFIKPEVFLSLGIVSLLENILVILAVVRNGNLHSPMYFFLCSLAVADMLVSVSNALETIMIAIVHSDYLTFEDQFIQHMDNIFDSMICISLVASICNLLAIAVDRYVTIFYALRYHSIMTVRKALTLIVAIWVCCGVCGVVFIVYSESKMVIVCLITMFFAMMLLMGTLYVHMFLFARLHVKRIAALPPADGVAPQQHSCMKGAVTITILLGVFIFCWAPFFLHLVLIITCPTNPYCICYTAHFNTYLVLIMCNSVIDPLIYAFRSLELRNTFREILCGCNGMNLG
A further assay concerns the target Melanocortin receptor 5 (Homo sapiens, UniProt P33032). Briefly: Displacement of [125I]-NAD-alpha-MSH from human recombinant MC3 receptor human MC5 expressed in BHK570 cells after 1 hr in presence of ovalbumin. The assay is classed as cell-based.
For assay [2], the target named is T1, Melanocortin receptor 4 (Homo sapiens, UniProt P32245). As to the kind of experiment: Displacement of [125I]-NAD-alpha-MSH from MC4 receptor after 2 hrs by gamma counting in presence of ovalbumin.
T1 sequence (P32245 whole entry): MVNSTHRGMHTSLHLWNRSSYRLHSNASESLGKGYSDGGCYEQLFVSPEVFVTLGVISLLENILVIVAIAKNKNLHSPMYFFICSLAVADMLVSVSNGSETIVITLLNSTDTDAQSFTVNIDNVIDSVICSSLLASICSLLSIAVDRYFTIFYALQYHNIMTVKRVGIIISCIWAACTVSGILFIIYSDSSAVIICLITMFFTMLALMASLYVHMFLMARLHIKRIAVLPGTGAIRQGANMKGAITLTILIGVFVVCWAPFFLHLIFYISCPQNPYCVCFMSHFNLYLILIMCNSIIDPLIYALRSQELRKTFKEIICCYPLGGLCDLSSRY
For assay [3], the target named is T1, Melanocortin receptor 4. As to the kind of experiment: Agonist activity at human recombinant MC4 receptor expressed in BHK570 cells assessed as induction of […] accumulation in presence of 0.1% human serum albumin. It counts as functional, cell-based.
Assay [4] relates to Rattus norvegicus. As to the kind of experiment: Antiobesity activity in Sprague-Dawley rat assessed as reduction of food intake at 3 mg/kg, sc qd measured up to 7 hrs relative to control. It counts as functional. The arrangement: scale not given: the % may be the effect or the level left. The conditions noted are these: route subcutaneous.
In assay [5] the test system is Rattus norvegicus. As to the kind of experiment: Antiobesity activity in Sprague-Dawley rat assessed as reduction of food intake at 3 mg/kg, sc qd measured after 7 to 24 hrs relative to control. It counts as functional. The arrangement: scale not given: the % may be the effect or the level left. The conditions noted are these: route subcutaneous.
Assay [6] relates to Rattus norvegicus. As to the kind of experiment: Antiobesity activity in Sprague-Dawley rat assessed as reduction of food intake at 3 mg/kg, sc qd measured after 24 to 48 hrs relative to control. The conditions noted are these: route subcutaneous. The assay is classed as functional.

Sequence of Melanocortin receptor 5 (P33032 whole entry): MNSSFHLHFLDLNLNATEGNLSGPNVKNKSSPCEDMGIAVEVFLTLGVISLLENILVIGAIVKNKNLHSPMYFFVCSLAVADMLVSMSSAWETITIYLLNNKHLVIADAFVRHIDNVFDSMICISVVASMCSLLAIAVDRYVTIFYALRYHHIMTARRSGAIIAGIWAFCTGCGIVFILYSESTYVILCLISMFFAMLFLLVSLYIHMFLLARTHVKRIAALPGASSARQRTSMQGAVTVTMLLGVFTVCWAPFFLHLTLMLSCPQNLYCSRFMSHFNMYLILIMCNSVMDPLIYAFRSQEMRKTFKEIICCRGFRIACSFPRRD

As a reminder, the Ki is the equilibrium dissociation constant of an inhibitor or competing ligand from its target. By EC50 is commonly meant the concentration giving half of the maximal effect. In the case of `CCCC[C@H](NC(=O)[C@H](CO)NC(=O)[C@H](CCCCN=C(N)N)NC(=O)[C@H](CCC(N)=O)NC(=O)[C@H](CO)NC(=O)CNC(C)=O)C(=O)N[C@H]1CCC(=O)NCCCC[C@@H](C(N)=O)NC(=O)[C@H](Cc2c[nH]c3ccccc23)NC(=O)[C@H](CCCN=C(N)N)NC(=O)[C@@H](Cc2ccccc2)NC(=O)[C@@H]2C[C@@H](O)CN2C1=O`, the Ki in assay [1] worked out at 73 nM; on Melanocortin receptor 3, 22 nM; on Melanocortin receptor 5, 4.3 nM; on Melanocortin receptor 4 [2], 1 nM. Besides, on Melanocortin receptor 4 [3], the EC50 turned out to be 0.47 nM.

`CCCC[C@H](NC(=O)[C@H](CNC(C)C)NC(=O)[C@H](Cc1cnc[nH]1)NC(=O)[C@H](CCC(N)=O)NC(=O)[C@H](CO)NC(=O)CNC(=O)COCCOCCNC(=O)CCCCCCCCCCCCCCCc1nnn[nH]1)C(=O)N[C@H]1CCC(=O)NCCCC[C@@H](C(N)=O)NC(=O)[C@H](Cc2c[nH]c3ccccc23)NC(=O)[C@H](CCCNC(=N)N)NC(=O)[C@@H](Cc2ccccc2)NC(=O)[C@@H]2C[C@@H](O)CN2C1=O`: the Ki in assay [1] came out at 270 nM; on Melanocortin receptor 3, 13 nM; at Melanocortin receptor 5, 3.4 nM; at Melanocortin receptor 4 [2] it was 0.26 nM. Also, the EC50 on Melanocortin receptor 4 [3] came to 15 nM. Besides, the Activity is reported as 50% in the assay with Rattus norvegicus [4] and 40% with Rattus norvegicus [5]. In addition, the “Food intake relative to control” value in the assay on Rattus norvegicus [6] is 72%.

Take `CCCCCCCCCCCCCCCC(=O)NCC(=O)NCC(=O)NCC(=O)NCC(=O)NCC(=O)N[C@@H](CCCC)C(=O)N[C@H]1CCC(=O)NCCCC[C@@H](C(N)=O)NC(=O)[C@H](Cc2c[nH]c3ccccc23)NC(=O)[C@H](CCCNC(=N)N)NC(=O)[C@@H](Cc2ccccc2)NC(=O)[C@@H]2C[C@@H](O)CN2C1=O`: the Ki in assay [1] came to 130 nM; at Melanocortin receptor 3, 8 nM; at Melanocortin receptor 5 it was 3 nM; on Melanocortin receptor 4 [2], 0.33 nM. The EC50 on Melanocortin receptor 4 [3] worked out at 1 nM. Besides, the Activity was determined as 110% with Rattus norvegicus [4] and 76% with Rattus norvegicus [5]. Also, the “Food intake relative to control” value in the assay on Rattus norvegicus [6] is given as 94%.

For `CCCC[C@H](NC(=O)[C@@H](N)CNC(=O)[C@H](Cc1cnc[nH]1)NC(=O)[C@H](CCC(N)=O)NC(=O)[C@H](CO)NC(=O)CNC(=O)COCCOCCNC(=O)CCCCCCCCCCCCCCCc1nnn[nH]1)C(=O)N[C@H]1CCC(=O)NCCCC[C@@H](C(N)=O)NC(=O)[C@H](Cc2c[nH]c3ccccc23)NC(=O)[C@H](CCCN=C(N)N)NC(=O)[C@@H](Cc2ccccc2)NC(=O)[C@@H]2C[C@@H](O)CN2C1=O`, the Ki was determined as 700 nM in assay [1], 121 nM at Melanocortin receptor 3, 40 nM on Melanocortin receptor 5 and 0.17 nM on Melanocortin receptor 4 [2]. For the same compound, at Melanocortin receptor 4 [3], the EC50 worked out at 85 nM.

Turning to `CCCC[C@H](NC(=O)[C@H](CCC(=O)O)NC(=O)[C@H](CCCN=C(N)N)NC(=O)[C@H](CCC(=O)O)NC(=O)[C@H](CCC(=O)O)NC(=O)CNC(=O)COCCOCCNC(=O)CCCCCCCCCCCCCCCc1nnn[nH]1)C(=O)N[C@H]1CCC(=O)NCCCC[C@@H](C(N)=O)NC(=O)[C@H](Cc2c[nH]c3ccccc23)NC(=O)[C@H](CCCN=C(N)N)NC(=O)[C@@H](Cc2ccccc2)NC(=O)[C@@H]2C[C@@H](O)CN2C1=O`, the Ki in assay [1] is more than 10000 nM; at Melanocortin receptor 3, 1100 nM; on Melanocortin receptor 5 it was 270 nM; on Melanocortin receptor 4 [2], 35 nM. In addition, the EC50 on Melanocortin receptor 4 [3] turned out to be 270 nM.

As to `CCCCCCCCCCCCCCCC(=O)NCC(=O)N[C@@H](CO)C(=O)N[C@@H](CCC(N)=O)C(=O)N[C@@H](Cc1cnc[nH]1)C(=O)N[C@@H](CO)C(=O)N[C@@H](CCCC)C(=O)N[C@H]1CCC(=O)NCCCC[C@@H](C(N)=O)NC(=O)[C@H](Cc2c[nH]c3ccccc23)NC(=O)[C@H](CCCNC(=N)N)NC(=O)[C@@H](Cc2ccccc2)NC(=O)[C@@H]2C[C@@H](O)CN2C1=O`, the inhibition constant Ki in assay [1] amounted to 8 nM; on Melanocortin receptor 3, 2.5 nM; at Melanocortin receptor 5, 1.6 nM; on Melanocortin receptor 4 [2] it was 0.12 nM. Besides, on Melanocortin receptor 4 [3], the EC50 came out at 0.17 nM. For the same compound, the Activity in the assay on Rattus norvegicus [4] was found to be 63%; with Rattus norvegicus [5], 58%. In addition, in the assay on Rattus norvegicus [6], the “Food intake relative to control” value worked out at 81%.

With `CCCC[C@H](NC(=O)[C@H](CN)NC(=O)[C@H](Cc1cnc[nH]1)NC(=O)[C@H](CCC(N)=O)NC(=O)[C@H](CO)NC(=O)CNC(=O)COCCOCCNC(=O)CCCCCCCCCCCCCCCc1nnn[nH]1)C(=O)N[C@H]1CCC(=O)NCCCC[C@@H](C(N)=O)NC(=O)[C@H](Cc2c[nH]c3ccccc23)NC(=O)[C@H](CCCN=C(N)N)NC(=O)[C@@H](Cc2ccccc2)NC(=O)[C@@H]2C[C@@H](O)CN2C1=O`, the Ki was 400 nM in assay [1], 42 nM at Melanocortin receptor 3, 10 nM on Melanocortin receptor 5 and 0.17 nM at Melanocortin receptor 4 [2]. Further, the EC50 on Melanocortin receptor 4 [3] was found to be 62 nM.

Take `CCCC[C@H](NC(=O)[C@H](CCC(=O)O)NC(=O)[C@H](Cc1c[nH]cn1)NC(=O)[C@H](CCC(=O)O)NC(=O)[C@H](CCC(=O)O)NC(=O)CNC(=O)COCCOCCNC(=O)CCCCCCCCCCCCCCCc1nnn[nH]1)C(=O)N[C@H]1CCC(=O)NCCCC[C@@H](C(N)=O)NC(=O)[C@H](Cc2c[nH]c3ccccc23)NC(=O)[C@H](CCCNC(=N)N)NC(=O)[C@@H](Cc2ccccc2)NC(=O)[C@@H]2C[C@@H](O)CN2C1=O`: the Ki is 8100 nM in assay [1], 450 nM on Melanocortin receptor 3, 110 nM at Melanocortin receptor 5 and 7.8 nM on Melanocortin receptor 4 [2]. The results for the Activity in the assay on Rattus norvegicus [4] and in the assay on Rattus norvegicus [5] were 75% and 79%, respectively. For the same compound, the “Food intake relative to control” value in the assay on Rattus norvegicus [6] is listed as 88%.

As to `CCCC[C@H](NC(=O)[C@H](CN(C)C)NC(=O)[C@H](Cc1cnc[nH]1)NC(=O)[C@H](CCC(N)=O)NC(=O)[C@H](CO)NC(=O)CNC(=O)COCCOCCNC(=O)CCCCCCCCCCCCCCCc1nnn[nH]1)C(=O)N[C@H]1CCC(=O)NCCCC[C@@H](C(N)=O)NC(=O)[C@H](Cc2c[nH]c3ccccc23)NC(=O)[C@H](CCCNC(=N)N)NC(=O)[C@@H](Cc2ccccc2)NC(=O)[C@@H]2C[C@@H](O)CN2C1=O`, the Ki in assay [1] worked out at 440 nM; on Melanocortin receptor 3, 11 nM; at Melanocortin receptor 5, 2.9 nM; at Melanocortin receptor 4 [2], 0.13 nM. Also, the EC50 at Melanocortin receptor 4 [3] is 130 nM. The Activity was found to be 62% in the assay with Rattus norvegicus [4] and 60% in the assay with Rattus norvegicus [5]. Moreover, in the assay on Rattus norvegicus [6], the “Food intake relative to control” value is 82%.

Take `CCCC[C@H](NC(=O)[C@H](CCCNC(=N)N)NC(=O)[C@H](Cc1cnc[nH]1)NC(=O)[C@H](CCC(N)=O)NC(=O)[C@H](CO)NC(=O)CNC(=O)COCCOCCNC(=O)CCCCCCCCCCCCCCCc1nnn[nH]1)C(=O)N[C@H]1CCC(=O)NCCCC[C@@H](C(N)=O)NC(=O)[C@H](Cc2c[nH]c3ccccc23)NC(=O)[C@H](CCCNC(=N)N)NC(=O)[C@@H](Cc2ccccc2)NC(=O)[C@@H]2C[C@@H](O)CN2C1=O`: the Ki in assay [1] was 44 nM; at Melanocortin receptor 3 it was 27 nM; on Melanocortin receptor 5, 3 nM; at Melanocortin receptor 4 [2] it was 0.08 nM. Further, the EC50 at Melanocortin receptor 4 [3] was 4.7 nM. Moreover, the values for the Activity with Rattus norvegicus [4] and in the assay with Rattus norvegicus [5] were 46% and 51%, respectively. Further, the “Food intake relative to control” value in the assay with Rattus norvegicus [6] turned out to be 83%.

As to `CCCC[C@H](NC(=O)[C@H](CO)NC(=O)[C@H](Cc1cnc[nH]1)NC(=O)[C@H](CCC(N)=O)NC(=O)[C@H](CO)NC(=O)CNC(C)=O)C(=O)N[C@H]1CCC(=O)NCCCC[C@@H](C(N)=O)NC(=O)[C@H](Cc2c[nH]c3ccccc23)NC(=O)[C@H](CCCNC(=N)N)NC(=O)[C@@H](Cc2ccccc2)NC(=O)[C@@H]2C[C@@H](O)CN2C1=O`, the Ki was 200 nM in assay [1], 45 nM on Melanocortin receptor 3, 5.1 nM at Melanocortin receptor 5 and 4.6 nM at Melanocortin receptor 4 [2]. Besides, the EC50 on Melanocortin receptor 4 [3] was 2 nM. For the same compound, the Activity came out at 55% with Rattus norvegicus [4] and 99% in the assay on Rattus norvegicus [5]. In addition, the “Food intake relative to control” value in the assay with Rattus norvegicus [6] came out at 103%.

In the case of `CCCCCCCCCCCCCCCC(=O)NCC(=O)N[C@@H](CO)C(=O)N[C@@H](CCC(N)=O)C(=O)N[C@@H](CCCCNC(=N)N)C(=O)N[C@@H](CO)C(=O)N[C@@H](CCCC)C(=O)N[C@H]1CCC(=O)NCCCC[C@@H](C(N)=O)NC(=O)[C@H](Cc2c[nH]c3ccccc23)NC(=O)[C@H](CCCNC(=N)N)NC(=O)[C@@H](Cc2ccccc2)NC(=O)[C@@H]2C[C@@H](O)CN2C1=O`, the Ki in assay [1] was 3.2 nM; on Melanocortin receptor 3, 2 nM; at Melanocortin receptor 5, 0.47 nM; on Melanocortin receptor 4 [2], 0.37 nM. In addition, the concentration for a half-maximal effect (EC50) on Melanocortin receptor 4 [3] was 0.04 nM. For the same compound, the Activity in the assay with Rattus norvegicus [4] worked out at 71%; in the assay on Rattus norvegicus [5] it was 57%. Further, the “Food intake relative to control” value in the assay with Rattus norvegicus [6] is 82%.

Regarding `CCCC[C@H](NC(=O)[C@H](CCC(=O)O)NC(=O)[C@H](CCC(=O)O)NC(=O)[C@H](CCC(=O)O)NC(=O)[C@H](CCC(=O)O)NC(=O)CNC(=O)COCCOCCNC(=O)CCCCCCCCCCCCCCCc1nnn[nH]1)C(=O)N[C@H]1CCC(=O)NCCCC[C@@H](C(N)=O)NC(=O)[C@H](Cc2c[nH]c3ccccc23)NC(=O)[C@H](CCCNC(=N)N)NC(=O)[C@@H](Cc2ccccc2)NC(=O)[C@@H]2C[C@@H](O)CN2C1=O`, the inhibitory constant (Ki) in assay [1] is more than 10000 nM; at Melanocortin receptor 3 it was 1600 nM; at Melanocortin receptor 5 it was 710 nM; on Melanocortin receptor 4 [2], 250 nM.
